Experimental data published in patent publication US20220241249A1, “PHARMACEUTICAL COMPOSITION AND KIT CONTAINING NOVEL PENAM DERIVATIVE OR SALT THEREOF AND ONE OR MORE COMPOUNDS SELECTED FROM beta-LACTAMASE INHIBITORY COMPOUND AND ANTIBACTERIAL COMPOUND OR SALTS THEREOF” (priority 2019, published 2022).
Where two headings read alike, the source gives them in different places.

Experiments:
Assay type in all cases: cell-based
[1] = tested on: Carbapenem-resistant Acinetobacter A515 strain; assay: MIC of test compound combined with a plurality of β-lactamase inhibitors; settings: for antibacterial activity in combination with two β-lactamase inhibitors: against all the bacterial strains (Acinetobacter A514 and A515), with SBT and AVI
Protocol: (§1) By using a broth microdilution method, the combinational effect of a test compound and a plurality of β-lactamase inhibitors was evaluated.
(§2) The evaluation test for antibacterial activity was performed in the same manner as in Test Example 1.
(§3) As bacterial strains, Carbapenem-resistant Acinetobacter A514 and A515 strains were used.

[2] = tested on: Escherichia coli TK-1765 strain producing CMY-2 (strain E); assay: MIC of test compound alone or with β-lactamase inhibitor at 4 μg/mL
Protocol: (§4) By using a broth microdilution method, the combinational effect of a test compound and a β-lactamase inhibitor was evaluated.
as §2
Escherichia coli TK-1765 strain producing CMY-2 (hereinafter, called strain E)

[3] = tested on: Klebsiella pneumoniae Y-1133 strain producing NDM-1, OXA-48, and CTX-M-15 (strain C); assay: as above
Protocol: as §4, §2
Klebsiella pneumoniae Y-1133 strain producing NDM-1, OXA-48, and CTX-M-15 (hereinafter, called strain C),
(§5) An antibacterial activity evaluation test was performed in the same manner as in Test Example 6.
(§6) As the bacterial strain, the strains B, C, and D producing β-lactamase and a Klebsiella pneumoniae Y-1069 strain (hereinafter, called strain F) producing OXA-48 and CTX-M-15 were used.

[4] = tested on: Escherichia coli TK-3113 strain producing IMP-8 (strain D); assay: as above
Protocol: as §4, §2
Escherichia coli TK-3113 strain producing IMP-8 (hereinafter, called strain D),
as §5, §6

[5] = tested on: Escherichia coli TK-1747 strain producing CTX-M-15 (strain A); assay: as above
Protocol: as §4, §2
Escherichia coli TK-1747 strain producing CTX-M-15 (hereinafter, called strain A),

[6] = tested on: Klebsiella pneumoniae ATCC13883 strain (Klebsiella pneumoniae A); assay: Combinational effect of test compound and antibacterial compound, checkerboard FIC index
Protocol: (§7) By using a broth microdilution method, the combinational effect of antibacterial activity of a test compound and an antibacterial compound was evaluated.
(§8) As bacterial strains, an Escherichia coli ATCC25922 strain (hereinafter, called Escherichia coli A), a Klebsiella pneumoniae ATCC13883 strain (hereinafter, called Klebsiella pneumoniae A), and a Pseudomonas aeruginosa ATCC27853 strain (hereinafter, called Pseudomonas aeruginosa A) were used.
(§9) The minimum inhibitory concentration (hereinafter, called MIC) was measured according to the Clinical and Laboratory Standards Institute (CLSI) standard method by using the following broth microdilution method.
(§10) The bacterial cells that had been cultured overnight on a Mueller Hinton agar medium were scraped off, suspended at a density equivalent to 0.5 McFarland standard. The obtained suspension was diluted at 10 fold, thereby obtaining an inoculum. Cation-adjusted Mueller Hinton media containing only a test compound, containing only an antibacterial compound, or containing a test compound and an antibacterial compound were inoculated with 0.005 mL of the inoculum, and the cells were cultured at 35° C. for 18 to 20 hours. The minimum drug concentration at which the growth of bacteria was not visually observed was defined as MIC (μg/mL).
(§11) The FIC Index is the minimum value calculated by the following formula.
(§12) FIC Index=(MIC value obtained in a case where test compound is used in combination/MIC value obtained in a case where test compound is used alone)+(MIC value obtained in a case where antibacterial compound is used in combination/MIC value obtained in a case where antibacterial compound is used alone)
(§13) In a case where the FIC Index was 0.5 or less, it was decided that the use of two drugs in combination brings about a synergistic effect.
(§14) In a case where the FIC Index was more than 0.5 and 1 or less, it was decided that the use of two drugs in combination brings about an additive effect. (Diagnostic Microbiology and Infectious Disease, 2004, Vol. 49, p. 197)

[7] = tested on: Escherichia coli ATCC25922 strain (Escherichia coli A); assay: as above
Protocol: as §7, §8, §9, §10, §11, §12, §13, §14

[8] = tested on: Pseudomonas aeruginosa ATCC27853 strain (Pseudomonas aeruginosa A); assay: as above; settings: for FIC index: Pseudomonas aeruginosa A, checkerboard; for combinational effect with other antibacterial compounds: main strains of Gram-negative bacteria, summary of Tables 40 to 42
Protocol: as §7, §8, §9, §10, §11, §12, §13, §14

[9] = tested on: Klebsiella pneumoniae Y-1020 strain producing KPC-3 and SHV-12 (strain B); assay: MIC of test compound alone or with β-lactamase inhibitor at 4 μg/mL; settings: for MIC: Strain B; for antibacterial activity in combination with a β-lactamase inhibitor versus without: for all the bacterial strains (strains A to E), summary of Tables 43 to 47
Protocol: as §4, §2

[10] = tested on: Carbapenem-resistant Acinetobacter A514 strain; assay: MIC of test compound combined with a plurality of β-lactamase inhibitors
Protocol: as §1, §2, §3

[11] = test compound alone (β-lactamase inhibitor N/A)
[12] = Table 48, against the Carbapenem-resistant Acinetobacter A514 and A515 strains (so in the source), read-out: MIC
[13] = Table 49, against the Carbapenem-resistant Acinetobacter A515 strain, read-out: MIC

SMILES: CC(C)(O/N=C(\C(=O)N[C@@H]1C(=O)N2C[C@@](C(=O)O)(N3CCN(NC(=O)C(=O)c4ccc(O)c(O)c4Cl)C3=O)S[C@H]12)c1csc(N)n1)C(=O)O [Compound A]
- antibacterial activity in combination with two β-lactamase inhibitors [1]: High antibacterial activity
- MIC [2, 11]: 1 µg/mL
- MIC ([2]; with AVI at 4 μg/mL): 0.06 µg/mL
- MIC ([2]; with SBT at 4 μg/mL): 0.5 µg/mL
- MIC ([2]; with TAZ at 4 μg/mL): 0.25 µg/mL
- MIC ([2]; with VAB at 4 μg/mL): 0.12 µg/mL
- MIC ([3]; AVI added at 4 μg/mL): 0.12 µg/mL
- MIC ([3]; NAC added at 4 μg/mL): 0.03 µg/mL
- MIC ([3]; ZID added at 4 μg/mL): <0.015 µg/mL
- MIC [3, 11]: 0.5 µg/mL
- MIC ([4]; NAC added at 4 μg/mL): 0.06 µg/mL
- MIC ([4]; ZID added at 4 μg/mL): <0.015 µg/mL
- MIC [4, 11]: 0.5 µg/mL
- MIC ([5]; AVI added at 4 μg/mL): <0.015 µg/mL
- MIC ([5]; CVA added at 4 μg/mL): <0.015 µg/mL
- MIC ([5]; NAC added at 4 μg/mL): <0.015 µg/mL
- MIC ([5]; SBT added at 4 μg/mL): <0.015 µg/mL
- MIC ([5]; TAZ added at 4 μg/mL): <0.015 µg/mL
- MIC ([5]; VAB added at 4 μg/mL): 0.06 µg/mL
- MIC ([5]; ZID added at 4 μg/mL): <0.015 µg/mL
- MIC [5, 11]: 0.12 µg/mL
- FIC index ([6]; in combination with CAZ): 0.625
- FIC index ([6]; in combination with IPM): 0.375
- FIC index ([6]; in combination with LVFX): 0.75
- FIC index ([6]; in combination with MPC): <0.5
- FIC index ([6]; in combination with PIPC): 0.375
- FIC index ([6]; in combination with PL-B): 0.125
- FIC index ([6]; in combination with RFP): 0.502
- FIC index ([6]; in combination with TMP): 0.375
- FIC index ([7]; in combination with AMK): 0.5625
- FIC index ([7]; in combination with CAZ): 0.625
- FIC index ([7]; in combination with IPM): 0.5156
- FIC index ([7]; in combination with LVFX): 0.75
- FIC index ([7]; in combination with MPC): 0.5078
- FIC index ([7]; in combination with PIPC): 0.5625
- FIC index ([7]; in combination with RFP): 0.625
- FIC index ([7]; in combination with TC): 0.75
- FIC index ([7]; in combination with TMP): 0.625
- FIC index ([8]; in combination with AMK): 0.5
- FIC index ([8]; in combination with CAZ): 0.5625
- FIC index ([8]; in combination with IPM): 0.252
- FIC index ([8]; in combination with LVFX): 0.5625
- FIC index ([8]; in combination with PIPC): 0.5
- FIC index ([8]; in combination with PL-B): 0.625
- FIC index ([8]; in combination with RFP): 0.281
- FIC index ([8]; in combination with TC): 0.375
- combinational effect with other antibacterial compounds [8]: additive or synergistic effect
- MIC ([9]; AVI added at 4 μg/mL): 0.25 µg/mL
- MIC ([9]; NAC added at 4 μg/mL): <0.015 µg/mL
- MIC ([9]; VAB added at 4 μg/mL): 1 µg/mL
- MIC ([9]; ZID added at 4 μg/mL): <0.015 µg/mL
- MIC [9, 11]: 2 µg/mL
- antibacterial activity in combination with a β-lactamase inhibitor versus without [9]: higher antibacterial activity

SMILES: Nc1nc(/C(=N/OC2(C(=O)O)CCC2)C(=O)N[C@@H]2C(=O)N3C[C@@](C(=O)O)(N4CCN(NC(=O)C(=O)c5ccc(O)c(O)c5Cl)C4=O)S[C@H]23)cs1 [Compound B]
- antibacterial activity in combination with two β-lactamase inhibitors [1]: High antibacterial activity
- MIC [2, 11]: 1 µg/mL
- MIC ([2]; with AVI at 4 μg/mL): 0.03 µg/mL
- MIC ([2]; with SBT at 4 μg/mL): 0.5 µg/mL
- MIC ([2]; with TAZ at 4 μg/mL): 0.12 µg/mL
- MIC ([2]; with VAB at 4 μg/mL): 0.03 µg/mL
- MIC ([3]; AVI added at 4 μg/mL): 0.12 µg/mL
- MIC ([3]; NAC added at 4 μg/mL): <0.015 µg/mL
- MIC ([3]; ZID added at 4 μg/mL): <0.015 µg/mL
- MIC [3, 11]: 1 µg/mL
- MIC ([4]; AVI added at 4 μg/mL): 0.25 µg/mL
- MIC ([4]; NAC added at 4 μg/mL): <0.015 µg/mL
- MIC ([4]; ZID added at 4 μg/mL): <0.015 µg/mL
- MIC [4, 11]: 0.5 µg/mL
- FIC index ([6]; in combination with AMK): 0.75
- FIC index ([6]; in combination with CAZ): 0.625
- FIC index ([6]; in combination with IPM): 0.375
- FIC index ([6]; in combination with LVFX): 0.563
- FIC index ([6]; in combination with MPC): <0.375
- FIC index ([6]; in combination with PIPC): <0.5
- FIC index ([6]; in combination with PL-B): 0.156
- FIC index ([6]; in combination with RFP): 0.281
- FIC index ([6]; in combination with TMP): 0.375
- FIC index ([7]; in combination with CAZ): 0.625
- FIC index ([7]; in combination with MPC): 0.508
- FIC index ([7]; in combination with PIPC): 0.53
- FIC index ([7]; in combination with RFP): 0.531
- FIC index ([7]; in combination with TMP): 0.531
- FIC index ([8]; in combination with AMK): 0.375
- FIC index ([8]; in combination with CAZ): 0.563
- FIC index ([8]; in combination with IPM): 0.5
- FIC index ([8]; in combination with LVFX): 0.625
- FIC index ([8]; in combination with PIPC): 0.375
- FIC index ([8]; in combination with PL-B): 0.531
- FIC index ([8]; in combination with RFP): 0.313
- FIC index ([8]; in combination with TMP): 0.502
- combinational effect with other antibacterial compounds [8]: additive or synergistic effect
- MIC ([9]; AVI added at 4 μg/mL): 0.25 µg/mL
- MIC ([9]; NAC added at 4 μg/mL): <0.015 µg/mL
- MIC ([9]; VAB added at 4 μg/mL): <0.015 µg/mL
- MIC ([9]; ZID added at 4 μg/mL): <0.015 µg/mL
- MIC [9, 11]: 2 µg/mL
- antibacterial activity in combination with a β-lactamase inhibitor versus without [9]: higher antibacterial activity

SMILES: C[C@@H](O)[C@H]1C(=O)N2C(C(=O)O)=C(S[C@@H]3CN[C@H](C(=O)N(C)C)C3)[C@H](C)[C@H]12 [MEPM, meropenem hydrate, reference compound]
- MIC [10, 12]: > 32 µg/mL
- MIC [1, 13]: > 32 µg/mL
- MIC ([3]; Klebsiella pneumoniae, test compound alone (β-lactamase inhibitor N/A)): > 128 µg/mL
- MIC ([9]; Klebsiella pneumoniae, test compound alone (β-lactamase inhibitor N/A), read-out: MIC): 32 µg/mL

SMILES: CC1(C)[C@H](C(=O)O)N2C(=O)C[C@H]2S1(=O)=O [SBT, sulbactam sodium]
- MIC ([10]; Acinetobacter): > 32 µg/mL
- MIC ([1]; Acinetobacter): > 32 µg/mL

SMILES: NC(=O)[C@@H]1CC[C@@H]2CN1C(=O)N2OS(=O)(=O)O [AVI, avibactam sodium]
- MIC [10, 12]: > 32 µg/mL
- MIC [1, 13]: > 32 µg/mL
